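Compound exposure: 48 hours, 5 concentrations, 96-well plates. Here, GI50 denotes the concentration required for 50% inhibition of growth. TGI: total growth inhibition.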
How the values were obtained:
Assay in all cases: growth of human tumour cells (NCI), 48 h
[1] = test system: 786-0 renal
[2] = test system: A498 renal
[3] = test system: A549 NSCLC
[4] = test system: ACHN renal
[5] = test system: BT-549 breast
[6] = test system: CAKI-1 renal
[7] = test system: CCRF-CEM leukemia
[8] = test system: COLO 205 colon
[9] = test system: DU-145 prostate
[10] = test system: EKVX NSCLC
[11] = test system: HCC-2998 colon
[12] = test system: HCT-116 colon
[13] = test system: HCT-15 colon
[14] = test system: HL-60(TB) leukemia
[15] = test system: HOP-62 NSCLC
[16] = test system: HOP-92 NSCLC
[17] = test system: HS 578T breast
[18] = test system: HT29 colon
[19] = test system: IGROV1 ovarian
[20] = test system: K-562 leukemia
[21] = test system: KM12 colon
[22] = test system: LOX IMVI melanoma
[23] = test system: M14 melanoma
[24] = test system: MALME-3M melanoma
[25] = test system: MCF7 breast
[26] = test system: MDA-MB-231 breast
[27] = test system: MDA-MB-435
[28] = test system: MOLT-4 leukemia
[29] = test system: NCI-H226 lung
[30] = test system: NCI-H23 lung
[31] = test system: NCI-H460 lung
[32] = test system: NCI-H522 lung
[33] = test system: NCI/ADR-RES ovarian
[34] = test system: OVCAR-3 ovarian
[35] = test system: OVCAR-4 ovarian
[36] = test system: OVCAR-5 ovarian
[37] = test system: OVCAR-8 ovarian
[38] = test system: PC-3 prostate
[39] = test system: RPMI-8226 leukemia
[40] = test system: RXF 393 renal
[41] = test system: SF-268 CNS
[42] = test system: SF-295 CNS
[43] = test system: SF-539 CNS
[44] = test system: SK-MEL-2 melanoma
[45] = test system: SK-MEL-28 melanoma
[46] = test system: SK-MEL-5 melanoma
[47] = test system: SK-OV-3 ovarian
[48] = test system: SN12C renal
[49] = test system: SNB-19 CNS
[50] = test system: SNB-75 CNS
[51] = test system: SW-620 colon
[52] = test system: T-47D breast
[53] = test system: TK-10 renal
[54] = test system: U251 CNS
[55] = test system: UACC-257 melanoma
[56] = test system: UACC-62 melanoma
[57] = test system: UO-31 renal

COc1cccc2c1[C@H](OC)[C@]13O[C@@]1(C2=O)[C@H](O)[C@H](C)[C@@](O)(C(=O)[C@@H]1O[C@H]1C)[C@@H]3O
GI50 [1]: 298 nM
TGI [1]: 2060 nM
GI50 [2]: 215 nM
TGI [2]: 542 nM
GI50 [3]: 297 nM
TGI [3]: 10700 nM
GI50 [4]: 283 nM
TGI [4]: 820 nM
TGI [5]: 838 nM
TGI [6]: 909 nM
GI50 [7]: 323 nM
TGI [7]: > 100000 nM
GI50 [8]: 239 nM
TGI [8]: 592 nM
TGI [9]: 1130 nM
GI50 [10]: 235 nM
TGI [10]: 655 nM
GI50 [11]: 215 nM
TGI [11]: 485 nM
TGI [12]: 1310 nM
GI50 [13]: 313 nM
TGI [13]: 1090 nM
GI50 [14]: 238 nM
TGI [14]: 696 nM
GI50 [15]: 316 nM
TGI [15]: 1790 nM
GI50 [16]: 223 nM
TGI [16]: 717 nM
GI50 [17]: 283 nM
TGI [17]: 962 nM
GI50 [18]: 321 nM
TGI [18]: 1580 nM
GI50 [19]: 295 nM
TGI [19]: 894 nM
GI50 [20]: 326 nM
TGI [20]: > 100000 nM
TGI [21]: 1710 nM
GI50 [22]: 180 nM
TGI [22]: 351 nM
TGI [23]: 534 nM
GI50 [24]: 200 nM
TGI [24]: 436 nM
TGI [25]: 1120 nM
GI50 [26]: 237 nM
TGI [26]: 657 nM
GI50 [27]: 286 nM
TGI [27]: 812 nM
GI50 [28]: 335 nM
GI50 [29]: 275 nM
TGI [29]: 802 nM
GI50 [30]: 243 nM
TGI [30]: 611 nM
GI50 [31]: 326 nM
TGI [31]: 1270 nM
GI50 [32]: 264 nM
TGI [32]: 803 nM
TGI [33]: 1180 nM
TGI [34]: 824 nM
GI50 [35]: 246 nM
TGI [35]: 642 nM
TGI [36]: 859 nM
GI50 [37]: 317 nM
TGI [37]: > 100000 nM
GI50 [38]: 304 nM
TGI [38]: 1110 nM
GI50 [39]: 303 nM
TGI [39]: 866 nM
GI50 [40]: 203 nM
TGI [40]: 461 nM
GI50 [41]: 295 nM
TGI [41]: 1030 nM
GI50 [42]: 285 nM
TGI [42]: 943 nM
TGI [43]: 698 nM
GI50 [44]: 230 nM
TGI [44]: 542 nM
GI50 [45]: 271 nM
TGI [45]: 722 nM
GI50 [46]: 223 nM
TGI [46]: 507 nM
GI50 [47]: 345 nM
TGI [47]: 2430 nM
GI50 [48]: 197 nM
TGI [48]: 691 nM
TGI [49]: 1060 nM
TGI [50]: 605 nM
GI50 [51]: 306 nM
TGI [51]: > 36000 nM
TGI [52]: 1860 nM
GI50 [53]: 261 nM
TGI [53]: 921 nM
TGI [54]: > 33000 nM
GI50 [55]: 270 nM
TGI [55]: 818 nM
GI50 [56]: 263 nM
TGI [56]: 765 nM
TGI [57]: 800 nM

Source: PubChem BioAssay (NCI)
